US20100048523A1, “Compounds, Compositions and Methods for Treating Hormone-Dependent Maladies” (priority 2006, published 2010)

Columns and labels:
[1] = test system: p21−/− MCF-10A breast cancer cell lines; assay: High-throughput cell-based growth inhibition screen, p21 knock-out (Erik) vs parental (Erin) cell lines; design: species or system human
[2] = test system: metastatic breast cancer (skin); assay: Case report: metastatic breast cancer (skin) nodule under Tamoxifen; format: in vivo, human
[3] = test system: MCF-10A cells stably overexpressing ERα; assay: Growth assay (crystal violet) of ERα positive MCF-10A cells; format: cell-based, human; conditions: for effect on estrogen-induced proliferation: ERα positive MCF-10A (p21+/+), with estrogen
Method: (§1) ERα positive MCF-10A (ERIN#9), pIRESpuro2 transfection control (−) control, and ERα positive MCF-10A p21−/− (1.6#4) cell lines were seeded in assay media (no EGF) and exposed to estrogen (E2), vehicle only, estrogen and Tamoxifen (E2+Tam), estrogen and Faslodex (E2+ICI), Tamoxifen alone (Tam) and Faslodex alone (ICI). Cells were grown for 1 week and stained with crystal violet. Results are representative of multiple clones including heterozygous controls, and assays were repeated three times for each clone.
(§2) The creation of a non-tumorigenic human breast epithelial cell line (MCF-10A) in which the p21 gene was deleted through targeted homologous recombination has been previously described. Because p21 has been implicated in Tamoxifen resistance, and the response of Tamoxifen in both parental MCF-10A cells and their p21−/− derivatives was assessed. MCF-10A cells are ERα negative and unresponsive to estrogen stimulation. In order to develop a model system to analyze the effects of estrogen and anti-estrogen signaling, MCF-10A cells and their p21−/− derivatives were stably transfected with a cDNA encoding for wild type ERα.
(§3) Unlike previous attempts to stably integrate ERα into the MCF-10A cell line, a cloning vector containing an internal ribosome entry site (IRES) was used to ensure high levels of wild type ERα expression. The full coding sequence of wild type ERα was PCR cloned into pIRESpuro2 (Clontech) and the absence of any coding mutations was verified by direct sequencing.
(§4) Cell lines were generated and grown with charcoal stripped dextran treated serum (Hyclone) and phenol red free medium to avoid any possible growth effects of estrogen in the medium.

[4] = test system: ER/PR positive breast cancers; conditions: adjuvant setting; cited from earlier work
[5] = test system: MCF-10A p21 knock out cell lines (ERα positive); assay: Growth assay (crystal violet) of ERα positive MCF-10A p21−/− cells; format: cell-based, human; conditions: for growth (cell proliferation) in response to the substance: ERα positive MCF-10A p21−/− (p21 null)
Method: as §1, §2, §3, §4

Compound: CC(=O)Oc1ccc2c(c1)CCC1C2CC[C@@]2(C)C1CCC21OCCO1 (stereo partly shown) [Compound 233-E09]
- targeting of tamoxifen resistant ER positive cells [1]: target tamoxifen resistant ER positive cells

Compound: CC/C(=C(\c1ccccc1)c1ccc(OCCN(C)C)cc1)c1ccccc1 [Tamoxifen]
- behaviour of recurrent skin nodule during Tamoxifen ([2]; 2003, in the presence of Tamoxifen): growing in the presence of Tamoxifen
- behaviour of skin nodule after Tamoxifen cessation ([2]; one month after Tamoxifen cessation): went away after cessation
- effect on estrogen-induced proliferation [3]: inhibited
- reduction of the risk of recurrence [4]: ≤ 47%
- growth inhibitory effect on p21 knock out cells ([5]; ERα positive MCF-10A p21−/−): resistant to the growth inhibitory effects
- growth (cell proliferation) in response to the substance [5]: grew in response

Compound: C[C@]12CC[C@@H]3c4ccc(O)cc4C[C@@H](CCCCCCCCC[S+]([O-])CCCC(F)(F)C(F)(F)F)[C@H]3[C@@H]1CC[C@@H]2O (stereo partly shown) [Faslodex, fulvestrant]
- effect on estrogen-induced proliferation [3]: inhibited
- effect on proliferative effects of estrogen ([5]; p21−/− cell lines, with estrogen): could still inhibit

Compound: O=C(c1ccc(OCCN2CCCCC2)cc1)c1c(-c2ccc(O)cc2)sc2cc(O)ccc12 [Raloxifene]
- effect on estrogen-induced proliferation [3]: behaved identically to Tamoxifen
- growth (cell proliferation) in response to the substance [5]: not as pronounced as Tamoxifen's

Compound: CC12CCC3c4ccc(O)cc4CCC3C1CCC21OCCO1 (stereo not shown) [Compound 233-D4]
- targeting of tamoxifen resistant ER positive cells [1]: target tamoxifen resistant ER positive cells

Compound: estrogen
- proliferation in response to the substance ([3]; ERα positive MCF-10A, assay media without EGF, 1 week): proliferated in response to estrogen
